Assay results published in patent publication US20260224563A1, “CRYSTALLINE FORMS OF 6-(3-((5-CHLORO-2-METHOXYPYRIDINE)-3-SULFONAMIDO)-2,6-DIFLUOROPHENYL)-N-METHYLIMIDAZO[1,5-A]PYRAZINE-1-CARBOXAMIDE AND METHODS FOR USING THE SAME” (HIBERCELL, INC., priority 2023, published 2026).
≈ marks a conversion by molar mass, not a printed value. Where two headings read alike, the source gives them in different places. One block for each compound: values may come before it.

Legend:
Format in all cases: physicochemical
[1] = Water activity study of the crystalline potassium salt forms (acetone/water suspension, XRPD); settings: water/acetone
Protocol: A water activity study of the potassium salt forms was conducted in two groups: (i) Form I and Form III of the potassium salt, and (ii) Form II and Form III of the potassium salt.
Each suspension was shaken at 700 rpm in a shaker at 25° C., 35° C., 45° C., and 50° C., and the sample was analyzed by XRPD.

[2] = Solubility testing in organic solvents and water (visual, room temperature)
[3] = Solubility in simulated biological fluid (FaSSGF and FaSSIF) at 37° C., HPLC; pH of filtrate, XRPD of filter cake; settings: for Concentration: 37° C.; for XRPD: filter cake; for pH (24 h): filtrate
Protocol: (§1) Approximately between 15 mg and 24 mg of sample was suspended in 5 mL or 8 mL of FaSSGF or FaSSIF, respectively. The resulting suspension was shaken at 700 rpm with a QQMSC-100 shaker at 37° C. The suspension was sampled and filtered at certain time intervals, which was achieved by sampling 1000 μL of each suspension which was then filtered and diluted, diluting the resulting filtrate for HPLC analysis to assess solubility. The pH of the filtrate was measured, and the filter cake was analyzed by XRPD.
as §1, with “Approximately” for “Approximately between”, “mg to” for “mg and”, “5” for “5 mL”, “suspension” for “suspension which”, “was” for “was then”
Approximately 15 mg to 24 mg of sample was suspended in 5 or 8 mL of FaSSGF or FaSSIF, respectively. The resulting suspension was shaken at 700 rpm with a QQMSC-100 shaker at 37° C. The suspension was sampled and filtered in certain time interval, which was achieved by sampling 1000 μL of each suspension was filtered and diluted, diluting the resulting filtrate for HPLC analysis to assess solubility. The pH of the filtrate was measured, and the filter cake was analyzed by XRPD.

Crystalline form by XRPD ([1]; 0% water without molecular sieves, KF 0.189 wt. %, 25° C.): Form III
Crystalline form by XRPD ([1]; 0% water without molecular sieves, KF 0.189 wt. %, 35° C.): Form III
Crystalline form by XRPD ([1]; 0% water without molecular sieves, KF 0.189 wt. %, 45° C.): Form III
Crystalline form by XRPD ([1]; 0% water without molecular sieves, KF 0.189 wt. %, 50° C.): Form III
Crystalline form by XRPD ([1]; 10 V% water, KF 14.9 wt. %, 25° C.): Form III
Crystalline form by XRPD ([1]; 10 V% water, KF 14.9 wt. %, 35° C.): Form III
Crystalline form by XRPD ([1]; 10 V% water, KF 14.9 wt. %, 45° C.): Form III
Crystalline form by XRPD ([1]; 10 V% water, KF 14.9 wt. %, 50° C.): Form III
Crystalline form by XRPD ([1]; 25 V% water, KF 34.5 wt. %, 25° C.): Form III
Crystalline form by XRPD ([1]; 25 V% water, KF 34.5 wt. %, 35° C.): Form III
Crystalline form by XRPD ([1]; 25 V% water, KF 34.5 wt. %, 45° C.): Form III
Crystalline form by XRPD ([1]; 25 V% water, KF 34.5 wt. %, 50° C.): Form III
Crystalline form by XRPD ([1]; 50 V% water, KF 60.1 wt. %, 25° C.): Form III
Crystalline form by XRPD ([1]; 50 V% water, KF 60.1 wt. %, 35° C.): Form III
Crystalline form by XRPD ([1]; 50 V% water, KF 60.1 wt. %, 45° C.): Form III
Crystalline form by XRPD ([1]; 50 V% water, KF 60.1 wt. %, 50° C.): Form III
Crystalline form by XRPD ([1]; 75 V% water, KF 90.5 wt. %, 25° C.): Form III
Crystalline form by XRPD ([1]; 75 V% water, KF 90.5 wt. %, 35° C.): Form III
Crystalline form by XRPD ([1]; 75 V% water, KF 90.5 wt. %, 45° C.): Form III
Crystalline form by XRPD ([1]; 75 V% water, KF 90.5 wt. %, 50° C.): Form III
SMILES: CNC(=O)c1ncn2cc(-c3c(F)ccc([N-]S(=O)(=O)c4cc(Cl)cnc4OC)c3F)ncc12.[K+] [Forms I and III of the Potassium Salt]

Crystalline form by XRPD ([1]; 0% water without molecular sieves, KF 0.189 wt. %, 50° C., 20 h): Form I^20 h
SMILES: CNC(=O)c1ncn2cc(-c3c(F)ccc([N-]S(=O)(=O)c4cc(Cl)cnc4OC)c3F)ncc12.[K+] [Forms II and III of the Potassium Salt]

Solubility ([2]; Acetone, listed as Form I of the Free Acid): ~10000 µg/mL (≈ 19700 µM)
Solubility ([2]; DCM, listed as Form I of the Free Acid): ~8000 µg/mL (≈ 15700 µM)
Solubility ([2]; DMSO, listed as Form I of the Free Acid): >230000 µg/mL
Solubility ([2]; EtOAc, listed as Form I of the Free Acid): ~2000 µg/mL (≈ 3930 µM)
Solubility ([2]; EtOH, listed as Form I of the Free Acid): ~1000 µg/mL (≈ 1970 µM)
Solubility ([2]; H2O (water), listed as Form I of the Free Acid): <100 µg/mL
Solubility ([2]; Heptane): <100 µg/mL
Solubility ([2]; IPA, listed as Form I of the Free Acid): ~400 µg/mL (≈ 786 µM)
Solubility ([2]; IPAc, listed as Form I of the Free Acid): ~800 µg/mL (≈ 1570 µM)
Solubility ([2]; MEK, listed as Form I of the Free Acid): ~6000 µg/mL (≈ 11800 µM)
Solubility ([2]; MTBE): <100 µg/mL
Solubility ([2]; MeCN, listed as Form I of the Free Acid): ~5000 µg/mL (≈ 9830 µM)
Solubility ([2]; MeOH, listed as Form I of the Free Acid): ~700 µg/mL (≈ 1380 µM)
Solubility ([2]; NBA, 24 °C, organic solvent or mixture, thermodynamic from solid, NBA, read-out: Solubility): ~700 µg/mL (≈ 1380 µM)
Solubility ([2]; THF, listed as Form I of the Free Acid): ~35000 µg/mL (≈ 68800 µM)
Solubility ([2]; toluene, 24 °C, organic solvent or mixture, thermodynamic from solid, Toluene, read-out: Solubility): < 100 µg/mL
SMILES: CNC(=O)c1ncn2cc(-c3c(F)ccc(NS(=O)(=O)c4cc(Cl)cnc4OC)c3F)ncc12 [Free acid Form I, 6-(3-((5-chloro-2-methoxypyridine)-3-sulfonamido)-2,6-difluorophenyl)-N-methylimidazo[1,5-a]pyrazine-1-carboxamide]

pH (0 h) ([3]; FaSSGF): 1.60
Concentration ([3]; FaSSGF, 0.5 h): 45900 ng/mL
Concentration ([3]; FaSSGF, 2.0 h): 4400 ng/mL
Concentration ([3]; FaSSGF, 24 h): 4100 ng/mL
XRPD ([3]; FaSSGF): Changed
pH (24 h) ([3]; FaSSGF): 1.68
pH (0 h) ([3]; FaSSIF): 6.50
Concentration ([3]; FaSSIF, 0.25 h): 176000 ng/mL
Concentration ([3]; FaSSIF, 0.5 h): 175000 ng/mL
Concentration ([3]; FaSSIF, 0.75 h): 169000 ng/mL
Concentration ([3]; FaSSIF, 1.0 h): 170000 ng/mL
Concentration ([3]; FaSSIF, 2.0 h): 13200 ng/mL
Concentration ([3]; FaSSIF, 24 h): 9900 ng/mL
XRPD ([3]; FaSSIF): Changed
pH (24 h) ([3]; FaSSIF): 6.86
SMILES: CNC(=O)c1ncn2cc(-c3c(F)ccc([N-]S(=O)(=O)c4cc(Cl)cnc4OC)c3F)ncc12.[Na+] [Na salt Form III]
